From US6399637B1, “Crystal modification of torasemide” (PLIVA, farmaceutska, kemijska, prehrambena i kozmeticka …, priority 1998, dated 2002)

Legend:
Assay type in all cases: physicochemical
[1] = Dissolution test of torasemide in water (USP 23); conditions: for % Dissolved torasemide: water, USP 23, 37° C., 50 rpm., 1000 ml
Method: (§1) The microcrystallinic modifications I, II and III of torasemide prepared according to Acta Crst. B34 (1978), 1304-1310 and Example 1 were subjected to dissolution testing in water, and in artificial intestinal juice, at 37° C.

[2] = Stability of the crystal modification on storage and at increased humidity
[3] = Intrinsic Dissolution Rate in a model of artificial gastric juice
[4] = Dissolution test in artificial intestinal juice (USP 23)
Method: as §1

| % Dissolved torasemide ([1]; 0 minutes) [%] | % Dissolved torasemide ([1]; 10 minutes) [%] | % Dissolved torasemide ([1]; 20 minutes) [%] | % Dissolved torasemide ([1]; 30 minutes) [%] | % Dissolved torasemide ([1]; 40 minutes) [%] | % Dissolved torasemide ([1]; 50 minutes) [%] | % Dissolved torasemide ([1]; 60 minutes) [%] | stability of the crystal modification (no transformation into modification I or II) ([2]; normal storage conditions) | stability of the crystal modification (no transformation into modification I or II) ([2]; subjected to increased humidity) | IDR (Intrinsic Dissolution Rate) [3] | dissolution profile (USP 23) in comparison to known crystal modifications I and II [4] | dissolution profile (USP 23) in comparison to known crystal modifications I and II ([1]; in water) | Structure (SMILES) |
| --- | --- | --- | --- | --- | --- | --- | --- | --- | --- | --- | --- | --- |
| 0 | 6.7 | 13.0 | 18.5 | 23.5 | 28.5 | 32.8 |  |  |  |  |  | Cc1cccc(Nc2ccncc2S(=O)(=O)NC(=O)NC(C)C)c1 [Mod. I, N-(1-methylethylaminocarbonyl)-4-(3-methyl-phenylamino)-3-pyridinesulfonamide] |
| 0 | 15.1 | 27.8 | 39.2 | 48.8 | 56.3 | 65.1 |  |  |  |  |  | Cc1cccc(Nc2ccncc2S(=O)(=O)NC(=O)NC(C)C)c1 [Mod. II, N-(1-methylethylaminocarbonyl)-4-(3-methyl-phenylamino)-3-pyridinesulfonamide] |
| 0 | 15.6 | 28.1 | 37.7 | 43.6 | 48.5 | 51.1 | stable | stable | exceeds 1 mg cm^−2min^−1 | significant difference | significant difference | Cc1cccc(Nc2ccncc2S(=O)(=O)NC(=O)NC(C)C)c1 [Mod. III, N-(1-methylethylaminocarbonyl)-4-(3-methyl-phenylamino)-3-pyridinesulfonamide] |
